US20190090458A1, “DEVICE FOR OBTAINING AGE/SIZE-MATCHED NEMATODES AND METHODS OF USE” (University of Alaska, Fairbanks, priority 2017, published 2019)

Columns and labels:
[1] = tested on: C. elegans; test: Motility assay (motility class scoring); format: in vivo; conditions: 100 μM FUDR in NGM; days 2, 4, 6 and 8 of adulthood; p>0.05
Experimental: (§1) The three groups tested were separated by: 1) individual picking, wherein nematodes were selected and transferred manually using a platinum loop; 2) the chemical treatment fluorodeoxyuridine (FUDR), wherein 100 mg/mL FUDR was added to the NGM media to a final concentration of 100 μM to prevent any progeny production, and then the nematodes were transferred every other day to a fresh NGM plate to avoid food depletion; and, 3) the device of Example 1.
In C. elegans the normal sinusoidal movement (i.e., motility) declines with age and is a marker of overall health. To determine if the present device influenced motility, motility scores were compared for pick, FUDR, and present filter membrane device treatment groups on days 2, 4, 6, and 8 of adulthood. The mobility assay was performed as disclosed by Hendon et al. Stochastic and genetic factors influence tissue-specific decline in ageing C. elegans. Nature. 419 (6909), 808-814 (2002). The nematodes were assigned a motility score and assigned to a class (A, B, or C). Class A individuals move spontaneously in a normal, sinusoidal pattern. Class B individuals move in markedly non-sinusoidal movements and may require prodding to encourage movement. Class C individuals move their head and/or tail in response to prodding but are unable to move across the agar.

[2] = tested on: C. elegans; test: Pharyngeal pump rate; format: in vivo; conditions: 100 μM FUDR in NGM; days 6 and 8 of adulthood; p<0.001
Experimental: as §1
The ability of C. elegans' pharyngeal muscles to pump declines with age and is another biomarker of healthspan. To determine if the present filter membrane device influenced the nematodes' pharyngeal pump rate, the three treatment groups were compared on days 2, 4, 6, and 8 of adulthood (n=8 to 10 per group). The grinder movement of the nematode's terminal pharyngeal bulb was visually counted under a stereomicroscope at a 600× final magnification for 1 minute, wherein a statistical analysis with a one-way ANOVA with α=0.05 and Bonferroni post-tests with α=0.05 was performed.

[3] = tested on: C. elegans; test: Gentle touch response (anterior and posterior); format: in vivo; conditions: 100 μM FUDR in NGM; any day of testing (days 2, 4, 6, 8); p>0.4
Experimental: as §1
Response to mechanical stimulus is a physiological marker to assess aging or general health; thus, the impact of different transfer methods on both the anterior and the posterior gentle touch responses were tested. Responses to a gentle touch were compared between the three treatment groups, wherein the assay was performed based on the methods described by Calixto et al. Enhanced neuronal RNAi in C. elegans using SID-1. Nature Methods. 7 (7), 554-559 (2010). The anterior and posterior touch response was recorded by gently stroking an eyelash pick perpendicularly across the tail or the head (5× each, alternating head and tail) of the animals. Any movement in the opposite direction of the stroke was scored as 1 point on a scale of 0 to 5 for both the anterior and the posterior response. A statistical analysis with a one-way ANOVA with α=0.05 and Bonferroni post-tests with α=0.05 was conducted using the recorded scored.

[4] = tested on: sod-3::gfp; test: sod-3::gfp fluorescent reporter stress response assay; format: in vivo, C. elegans; conditions: 100 μM paraquat, positive control; strain CF1553; p<0.05
Experimental: Three commonly used fluorescent reporter assays were performed to detect potential markers of stress: a DAF-16::GFP translocation into the nuclei of cells in a strain [TJ356-zIs356 (pDAF-16::DAF-16-GFP;rol-6)]; an hsp-16.2 expression [TJ375-gpls 1 (hsp-16.2p::GFP)]; and a sod-3 expression [CF1553-muIs84([pAD76]sod-3p::GFP+rol-6[su1006])]. Henderson, S. T., Johnson, T. E. daf-16 integrates developmental and environmental inputs to mediate aging in the nematode Caenorhabditis elegans. Current Biology. 11 (24), 1975-1980 (2001); Rea, S. L., Wu, D., Cypser, J. R., Vaupel, J. W., Johnson, T. E. A stress-sensitive reporter predicts longevity in isogenic populations of Caenorhabditis elegans. Nature Genetics. 37 (8), 894-898 (2005); and, Libina, N., Berman, J. R., Kenyon, C. […]
At day 3 of adulthood, the nematodes were harvested with an eyelash pick and mounted to a coverslip with 1 μL of a 36% poloxamer 407 surfactant solution to immobilize the nematodes. […] Differences in the fluorescent localization between the three groups was recorded and results compared using an ordinal logistics statistical model in statistical analysis software (DAF-16::GFP assay) and for the hsp-16.2 and the sod-3 expression assays, a one-way ANOVA with α=0.05 and Tukey's post hoc tests with α=0.05 was used to compare the total fluorescence of the head region. […]

Structure (SMILES) | motility class distribution compared with pick and device groups [1] | pharyngeal pump rate, FUDR versus picking group [2] | anterior and posterior gentle touch response compared with pick and device groups [3] | SOD-3 expression (sod-3::gfp fluorescence of head region) versus pick and device groups [4]
O=c1[nH]c(=O)n([C@H]2C[C@H](O)[C@@H](CO)O2)cc1F [FUDR, 5-fluorodeoxyuridine] | no difference | significant difference | no statistically significant difference | –
C[n+]1ccc(-c2cc[n+](C)cc2)cc1 [paraquat] | – | – | – | high expression of sod-3::gfp
